Key:
[1] = target: T1, Solute carrier organic anion transporter family member 1B1 (Homo sapiens, UniProt Q9Y6L6); conditions: chinese hamster, cho, 10 µM
T1 sequence (Q9Y6L6 whole entry): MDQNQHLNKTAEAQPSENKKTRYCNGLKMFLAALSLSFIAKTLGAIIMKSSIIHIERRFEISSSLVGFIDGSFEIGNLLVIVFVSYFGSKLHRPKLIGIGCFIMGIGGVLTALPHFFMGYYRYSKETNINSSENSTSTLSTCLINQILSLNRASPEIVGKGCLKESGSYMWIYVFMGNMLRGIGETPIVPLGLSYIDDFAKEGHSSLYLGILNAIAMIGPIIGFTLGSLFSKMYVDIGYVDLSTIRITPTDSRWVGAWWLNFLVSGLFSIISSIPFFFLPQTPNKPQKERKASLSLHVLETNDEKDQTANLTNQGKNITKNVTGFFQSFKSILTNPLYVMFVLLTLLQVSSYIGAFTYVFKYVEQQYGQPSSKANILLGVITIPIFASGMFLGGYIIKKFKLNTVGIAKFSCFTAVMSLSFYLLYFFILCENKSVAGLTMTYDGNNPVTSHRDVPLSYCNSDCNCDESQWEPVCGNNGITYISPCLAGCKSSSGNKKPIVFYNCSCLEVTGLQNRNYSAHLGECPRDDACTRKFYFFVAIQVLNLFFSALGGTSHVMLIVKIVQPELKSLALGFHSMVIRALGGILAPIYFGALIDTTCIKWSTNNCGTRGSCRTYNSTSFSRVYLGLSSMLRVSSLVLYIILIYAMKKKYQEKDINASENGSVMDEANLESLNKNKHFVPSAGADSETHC

[2] = target: T2, Solute carrier organic anion transporter family member 1B3 (Homo sapiens, UniProt Q9NPD5); conditions: chinese hamster, cho, 10 µM
T2 sequence (Q9NPD5 whole entry): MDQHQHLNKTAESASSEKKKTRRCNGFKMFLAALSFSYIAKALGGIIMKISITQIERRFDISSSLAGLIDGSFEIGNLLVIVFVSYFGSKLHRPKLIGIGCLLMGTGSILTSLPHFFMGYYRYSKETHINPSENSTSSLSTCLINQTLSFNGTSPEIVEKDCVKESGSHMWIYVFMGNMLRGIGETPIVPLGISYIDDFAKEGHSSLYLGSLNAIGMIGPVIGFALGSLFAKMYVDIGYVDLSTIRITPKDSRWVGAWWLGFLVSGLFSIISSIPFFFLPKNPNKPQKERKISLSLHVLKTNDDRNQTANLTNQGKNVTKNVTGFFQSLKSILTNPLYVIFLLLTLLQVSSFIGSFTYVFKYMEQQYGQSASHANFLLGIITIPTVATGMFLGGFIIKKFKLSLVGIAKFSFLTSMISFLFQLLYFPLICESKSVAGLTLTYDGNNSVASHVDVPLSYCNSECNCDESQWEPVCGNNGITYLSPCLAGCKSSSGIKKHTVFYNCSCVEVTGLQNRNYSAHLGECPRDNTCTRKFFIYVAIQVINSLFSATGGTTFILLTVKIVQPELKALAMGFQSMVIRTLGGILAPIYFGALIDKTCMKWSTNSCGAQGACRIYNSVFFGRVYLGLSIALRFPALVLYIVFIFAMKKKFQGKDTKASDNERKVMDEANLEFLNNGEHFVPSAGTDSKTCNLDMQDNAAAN

`C=C[C@H]1CN2CC[C@H]1C[C@@H]2[C@@H](O)c1ccnc2ccc(OC)cc12.O=C(O)[C@H](O)[C@@H](O)[C@H](O)[C@H](O)CO` [QUINIDINE GLUCONATE] gave a residual activity [1] of 103.2% and a residual activity [2] of 122%.
With `C=C[C@H]1CN2CC[C@H]1C[C@H]2[C@H](OC(=O)OCC)c1ccnc2ccc(OC)cc12` [QUININE ETHYLCARBONATE] the residual activity [1] was 58.74% and the residual activity [2] was 64.19%.
`C=C[C@H]1CN2CC[C@H]1C[C@H]2[C@H](O)c1ccnc2ccc(OC)cc12.C=C[C@H]1CN2CC[C@H]1C[C@H]2[C@H](O)c1ccnc2ccc(OC)cc12.O.O.O=S(=O)(O)O` [QUININE SULFATE] showed a residual activity [1] of 92.08% and a residual activity [2] of 99.87%.
`O=C(O)c1cccnc1C(=O)O` [QUINOLINIC ACID] gave a residual activity [1] of 103.9% and a residual activity [2] of 104.2%.
With `O=C(O)/C=C\C(=O)O.c1ccc2nc(N3CCNCC3)ccc2c1` [QUIPAZINE MALEATE] the residual activity [1] was 102.6% and the residual activity [2] was 102.9%.
`CNC(C)C(O)c1ccccc1.Cl` (configuration not stated) [RACEPHEDRINE HYDROCHLORIDE] showed a residual activity [1] of 70.72% and a residual activity [2] of 103.1%.
Work on `CCC(=O)NCC[C@@H]1CCc2ccc3c(c21)CCO3` [RAMELTEON] yielded a residual activity [1] of 127.6% and a residual activity [2] of 113.4%.
Work on `Cc1c(NC(C)C)c(=O)n(-c2ccccc2)n1C` [RAMIFENAZONE] yielded a residual activity [1] of 105.5% and a residual activity [2] of 89.79%.
With `COc1ccccc1OCC(O)CN1CCN(CC(=O)Nc2c(C)cccc2C)CC1` (configuration not stated) [RANOLAZINE] the residual activity [1] was 70.75% and the residual activity [2] was 83.1%.
`O=C(NC(Cc1cc(=O)[nH]c2ccccc12)C(=O)O)c1ccc(Cl)cc1` (configuration not stated) [REBAMIPIDE] was tested, and the residual activity [1] was 97.98% and the residual activity [2] was 109.2%.
With `CC(=O)Oc1cccc(O)c1` [RESORCINOL MONOACETATE] the residual activity [1] was 102.7% and the residual activity [2] was 68.79%.
`Oc1cccc(O)c1` [RESORCINOL] showed a residual activity [1] of 89.71% and a residual activity [2] of 104.2%.
For `Oc1ccc(/C=C/c2cc(O)cc(O)c2)cc1` [RESVERATROL], the residual activity [1] was 157.6% and the residual activity [2] was 116.7%.
Molecule `CC1=C(/C=C/C(C)=C/C=C/C(C)=C/CO)C(C)(C)CCC1` [RETINOL] has a residual activity [1] of 18.99% and a residual activity [2] of 31.96%.
Work on `COc1ccc(-c2coc3c(O)c(OC)ccc3c2=O)cc1` [RETUSIN 7-METHYL ETHER] yielded a residual activity [1] of 126.8% and a residual activity [2] of 107.3%.
`C=C(C)/C=C1/C=CC(=O)C(C)=C1` [RETUSOQUINONE] was tested, and the residual activity [1] was 96.97% and the residual activity [2] was 92.24%.
`COc1cc(O)c2c(=O)c(O)c(-c3ccc(O)c(O)c3)oc2c1` [RHAMNETIN] gave a residual activity [1] of 90.81% and a residual activity [2] of 99.02%.
With `COc1ccc(/C=C/c2cc(O)cc(O[C@@H]3O[C@H](CO)[C@@H](O)[C@H](O)[C@H]3O)c2)cc1O` [RHAPONTIN] the residual activity [1] was 166.2% and the residual activity [2] was 100.6%.
Work on `CNc1ccccc1C(=O)N1CCc2c([nH]c3ccccc23)C1=O` [RHETSININE] yielded a residual activity [1] of 102% and a residual activity [2] of 98.18%.
For `COC1=C(O)C(=O)c2c(cc3oc(C(C)=O)c(O)c3c2O)C1=O` [RHODOCLADONIC ACID], the residual activity [1] was 93.89% and the residual activity [2] was 96.54%.
For `CCC(C)C(=O)c1c(O)c(C)c2oc3c(C)c(O)c(C(=O)C(C)CC)c(O)c3c2c1O` (configuration not stated) [RHODOMYRTOXIN B], the residual activity [1] was 8.078% and the residual activity [2] was 37.47%.
Work on `Cc1c(O)c(C(=O)CC(C)C)c2oc3c(C(=O)CC(C)C)c(O)c(C)c(O)c3c2c1O` [RHODOMYRTOXIN] yielded a residual activity [1] of 31.12% and a residual activity [2] of 66.23%.
`C[C@@H]1O[C@@H](O[C@H]2[C@H](Oc3cc(O)c4c(=O)cc(-c5ccc(O)cc5)oc4c3)O[C@H](CO)[C@@H](O)[C@@H]2O)[C@H](O)[C@H](O)[C@H]1O` [RHOIFOLIN] gave a residual activity [1] of 101.7% and a residual activity [2] of 203.1%.
`NC(=O)c1ncn([C@@H]2O[C@H](CO)[C@@H](O)[C@H]2O)n1` [RIBAVIRIN] showed a residual activity [1] of 112.3% and a residual activity [2] of 87.39%.
Molecule `OC[C@@H](O)[C@@H](O)[C@@H](O)CO` [RIBITOL] has a residual activity [1] of 81.13% and a residual activity [2] of 94.42%.
In the case of `CO[C@H]1/C=C/O[C@@]2(C)Oc3c(C)c(O)c4c(O)c(c(/C=N/N5CCN(C)CC5)c(O)c4c3C2=O)NC(=O)/C(C)=C\C=C\[C@H](C)[C@H](O)[C@@H](C)[C@@H](O)[C@@H](C)[C@H](OC(C)=O)[C@@H]1C` [RIFAMPIN], the residual activity [1] is reported as 33.63% and the residual activity [2] is reported as 22.01%.
For `CO[C@H]1/C=C/O[C@@]2(C)Oc3c(C)c(O)c4c(O)c(c5c(nc6cc(C)ccn65)c4c3C2=O)NC(=O)/C(C)=C\C=C\[C@H](C)[C@H](O)[C@@H](C)[C@@H](O)[C@@H](C)[C@H](OC(C)=O)[C@@H]1C` [RIFAXIMIN], the residual activity [1] was 63.34% and the residual activity [2] was 81.07%.
Work on `Nc1nc2ccc(OC(F)(F)F)cc2s1` [RILUZOLE] yielded a residual activity [1] of 95.81% and a residual activity [2] of 124.8%.
In the case of `Cc1nc2sccn2c(=O)c1CCN1CCC(=C(c2ccc(F)cc2)c2ccc(F)cc2)CC1` [RITANSERIN], the residual activity [1] is reported as 96.72% and the residual activity [2] is reported as 101.7%.
In the case of `CC(NCCc1ccc(O)cc1)C(O)c1ccc(O)cc1.Cl` (configuration not stated) [RITODRINE HYDROCHLORIDE], the residual activity [1] is reported as 125.6% and the residual activity [2] is reported as 112.7%.
`COc1ccc(-c2c(OC)c3c(OC)c4c(cc3oc2=O)OC(C)(C)C=C4)cc1` [ROBUSTIC ACID METHYL ETHER] gave a residual activity [1] of 184.1% and a residual activity [2] of 140.2%.
In the case of `COc1ccc(-c2c(O)c3c(OC)c4c(cc3oc2=O)OC(C)(C)C=C4)cc1` [ROBUSTIC ACID], the residual activity [1] is reported as 96.44% and the residual activity [2] is reported as 74.37%.
With `CC1(C)C=Cc2c(cc3occ(-c4ccc5c(c4)OCO5)c(=O)c3c2O)O1` [ROBUSTONE] the residual activity [1] was 102.3% and the residual activity [2] was 96.96%.
Work on `CS(=O)(=O)c1ccc(C2=C(c3ccccc3)C(=O)OC2)cc1` [ROFECOXIB] yielded a residual activity [1] of 134.4% and a residual activity [2] of 84.03%.
`Cn1c([N+](=O)[O-])cnc1COC(N)=O` [RONIDAZOLE] was tested, and the residual activity [1] was 103.6% and the residual activity [2] was 88.05%.
In the case of `O=C(/C=C/c1ccc(O)c(O)c1)O[C@H](Cc1ccc(O)c(O)c1)C(=O)O` [ROSMARINIC ACID], the residual activity [1] is reported as 103.9% and the residual activity [2] is reported as 102.5%.
For `C=C(C)[C@H]1Cc2c(ccc3c2O[C@@H]2COc4cc(OC)c(OC)cc4[C@@H]2C3=O)O1` [ROTENONE], the residual activity [1] was 23.22% and the residual activity [2] was 43.86%.
Molecule `COc1cc2c(cc1OC)[C@@H]1C(=O)c3ccc(OC)c(CC=C(C)C)c3O[C@@H]1CO2` [ROTENONIC ACID, METHYL ETHER] has a residual activity [1] of 77.03% and a residual activity [2] of 108.1%.
`COc1cc2c(cc1OC)[C@@H]1C(=O)c3ccc(O)c(CC=C(C)C)c3O[C@@H]1CO2` [ROTENONIC ACID] was tested, and the residual activity [1] was 53.2% and the residual activity [2] was 99.21%.
`O=[N+]([O-])c1cc([As](=O)(O)O)ccc1O` [ROXARSONE] gave a residual activity [1] of 82.84% and a residual activity [2] of 90.61%.
Molecule `CC[C@H]1OC(=O)[C@H](C)[C@@H](O[C@H]2C[C@@](C)(OC)[C@@H](O)[C@H](C)O2)[C@H](C)[C@@H](O[C@@H]2O[C@H](C)C[C@H](N(C)C)[C@H]2O)[C@](C)(O)C[C@@H](C)/C(=N\OCOCCOC)[C@H](C)[C@@H](O)[C@]1(C)O` [ROXITHROMYCIN] has a residual activity [1] of 91.33% and a residual activity [2] of 77.16%.
